The data set can be described thus: log P determination. In kind it is physicochemical. The following applies: pH 2.7.

Molecules are shown by their SMILES.

As to `Cn1nnnc1C(=NO)c1ccccc1` [Example 1, sodium {[(1-methyl-1H-tetrazol-5-yl)(phenyl)methylene]amino}oxidanide], the logP (commonly a log measure of how a compound divides between an organic and an aqueous phase) was 1.45.

The values above are taken from US9212152B2, “Process for the preparation of N-hydroxy-1-(1-alkyl-1H-tetrazol-5-yl)-1-phenylmethanimine derivatives” (BAYER INTELLECTUAL PROPERTY GMBH, priority 2012, dated 2015).
